According to article PMC7486443, “Generation of Phenothiazine with Potent Anti-TLK1 Activity for Prostate Cancer Therapy” (iScience, 2020):

Experiments:
Assay in all cases: biochemical
Parameters in all cases: DiscoverX KINOMEscan scanMAX competition binding panel, single concentration, percent of control; remaining binding: dose or concentration left out as unconfirmed
Settings in all cases: KINOMEscan binding, percent of control; read-out: Table S4_SCANMAX REPORT - related to Fig. 1 / Percent Control
ALK(C1156Y) = ALK(C1156Y) (Homo sapiens, UniProt Q9UM73, C1156Y)
Sequence of ALK(C1156Y) (Q9UM73 whole entry C1156Y): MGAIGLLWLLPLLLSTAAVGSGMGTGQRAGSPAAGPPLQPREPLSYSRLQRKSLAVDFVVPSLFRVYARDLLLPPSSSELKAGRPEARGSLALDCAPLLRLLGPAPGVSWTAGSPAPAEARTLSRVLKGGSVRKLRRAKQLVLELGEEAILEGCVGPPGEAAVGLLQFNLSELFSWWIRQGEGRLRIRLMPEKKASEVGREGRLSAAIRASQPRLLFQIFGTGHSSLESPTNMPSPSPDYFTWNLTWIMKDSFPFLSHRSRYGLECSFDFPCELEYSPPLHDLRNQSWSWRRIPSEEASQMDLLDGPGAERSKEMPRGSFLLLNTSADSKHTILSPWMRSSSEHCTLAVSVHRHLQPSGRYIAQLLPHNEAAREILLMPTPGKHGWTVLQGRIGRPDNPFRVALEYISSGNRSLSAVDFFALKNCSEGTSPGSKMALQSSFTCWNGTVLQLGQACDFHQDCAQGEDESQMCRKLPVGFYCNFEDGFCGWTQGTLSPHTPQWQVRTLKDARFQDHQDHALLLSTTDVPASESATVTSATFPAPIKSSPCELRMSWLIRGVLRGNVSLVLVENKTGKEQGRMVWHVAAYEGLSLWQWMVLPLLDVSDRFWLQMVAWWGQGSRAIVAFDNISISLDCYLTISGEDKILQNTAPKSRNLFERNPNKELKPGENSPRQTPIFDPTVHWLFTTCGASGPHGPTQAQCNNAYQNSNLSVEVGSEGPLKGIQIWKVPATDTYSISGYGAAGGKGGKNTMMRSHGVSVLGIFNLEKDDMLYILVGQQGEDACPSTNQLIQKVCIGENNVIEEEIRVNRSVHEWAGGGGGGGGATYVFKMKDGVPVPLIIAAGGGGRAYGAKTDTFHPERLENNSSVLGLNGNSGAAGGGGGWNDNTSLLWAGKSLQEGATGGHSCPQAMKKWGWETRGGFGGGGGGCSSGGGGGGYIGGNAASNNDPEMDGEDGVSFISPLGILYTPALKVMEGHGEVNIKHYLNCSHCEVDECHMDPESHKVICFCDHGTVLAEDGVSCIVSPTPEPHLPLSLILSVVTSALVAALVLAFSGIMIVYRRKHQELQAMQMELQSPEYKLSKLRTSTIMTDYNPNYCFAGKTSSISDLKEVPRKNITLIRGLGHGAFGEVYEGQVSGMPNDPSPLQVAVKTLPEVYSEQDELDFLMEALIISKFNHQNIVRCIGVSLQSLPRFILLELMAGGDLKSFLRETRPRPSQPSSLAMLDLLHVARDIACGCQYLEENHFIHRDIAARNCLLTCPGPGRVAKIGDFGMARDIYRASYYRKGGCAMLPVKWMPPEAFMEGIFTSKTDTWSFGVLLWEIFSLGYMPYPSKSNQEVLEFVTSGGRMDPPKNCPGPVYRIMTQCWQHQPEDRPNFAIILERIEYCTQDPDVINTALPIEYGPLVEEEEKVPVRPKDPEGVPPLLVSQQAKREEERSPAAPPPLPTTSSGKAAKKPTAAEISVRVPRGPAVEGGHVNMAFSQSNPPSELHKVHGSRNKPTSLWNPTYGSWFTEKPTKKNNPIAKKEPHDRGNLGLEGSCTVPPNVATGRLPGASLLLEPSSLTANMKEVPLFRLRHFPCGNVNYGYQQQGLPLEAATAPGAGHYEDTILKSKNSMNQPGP

ALK(L1196M) = ALK(L1196M) (Homo sapiens, UniProt Q9UM73, L1196M)
Sequence of ALK(L1196M) (Q9UM73 whole entry L1196M): as the sequence (Q9UM73 whole entry C1156Y) above, with Y1156C, L1196M counted along it

KIT(D816V) = KIT(D816V) (Homo sapiens, UniProt P10721, D816V)
RIPK5 = biological target: T1, RIPK5 (Homo sapiens, UniProt Q6XUX3)
T1 construct: gene DSTYK

IRAK4 = IRAK4 (Homo sapiens, UniProt Q9NWZ3)
Sequence of IRAK4 (Q9NWZ3 whole entry): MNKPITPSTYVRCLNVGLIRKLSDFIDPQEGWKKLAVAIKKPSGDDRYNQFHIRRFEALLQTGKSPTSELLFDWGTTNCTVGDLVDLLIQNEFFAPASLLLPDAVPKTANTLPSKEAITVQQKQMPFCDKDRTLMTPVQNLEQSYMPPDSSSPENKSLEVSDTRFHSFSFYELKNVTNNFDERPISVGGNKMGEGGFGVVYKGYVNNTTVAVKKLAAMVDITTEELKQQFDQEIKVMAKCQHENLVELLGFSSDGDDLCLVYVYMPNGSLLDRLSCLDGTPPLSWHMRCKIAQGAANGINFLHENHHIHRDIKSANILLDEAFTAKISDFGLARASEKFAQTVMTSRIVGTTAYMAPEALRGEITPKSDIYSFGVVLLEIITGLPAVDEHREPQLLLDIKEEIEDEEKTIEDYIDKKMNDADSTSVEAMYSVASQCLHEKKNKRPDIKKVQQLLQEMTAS

FGR = FGR (Homo sapiens, UniProt P09769)
ASK1 = biological target: T2, ASK1 (Homo sapiens, UniProt Q99683)
T2 construct: gene MAP3K5

[1] = biological target: T3, RSK2(Kin.Dom.2-C-terminal) (Homo sapiens, UniProt P51812)
T3 construct: gene RPS6KA3; Kin.Dom.2-C-terminal
T3 sequence (P51812 whole entry): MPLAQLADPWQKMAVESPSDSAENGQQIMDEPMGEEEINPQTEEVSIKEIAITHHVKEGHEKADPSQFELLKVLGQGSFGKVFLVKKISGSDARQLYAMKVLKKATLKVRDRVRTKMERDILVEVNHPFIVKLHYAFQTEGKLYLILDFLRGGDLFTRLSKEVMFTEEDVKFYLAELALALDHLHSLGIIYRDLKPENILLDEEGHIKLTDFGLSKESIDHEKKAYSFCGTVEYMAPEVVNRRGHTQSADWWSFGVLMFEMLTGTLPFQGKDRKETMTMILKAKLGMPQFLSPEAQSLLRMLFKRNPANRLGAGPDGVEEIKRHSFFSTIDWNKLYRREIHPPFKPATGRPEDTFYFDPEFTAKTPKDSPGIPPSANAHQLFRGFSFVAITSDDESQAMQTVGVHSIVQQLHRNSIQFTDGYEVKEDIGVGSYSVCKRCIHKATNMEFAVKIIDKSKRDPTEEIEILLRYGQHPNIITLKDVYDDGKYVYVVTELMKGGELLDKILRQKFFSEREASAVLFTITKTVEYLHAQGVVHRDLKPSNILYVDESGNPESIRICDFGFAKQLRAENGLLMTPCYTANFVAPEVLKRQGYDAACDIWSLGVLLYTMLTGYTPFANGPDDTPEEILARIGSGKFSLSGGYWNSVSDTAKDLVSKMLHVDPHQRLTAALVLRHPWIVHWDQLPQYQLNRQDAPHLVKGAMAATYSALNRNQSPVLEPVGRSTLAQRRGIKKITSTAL

INSR = INSR (Homo sapiens, UniProt P06213)
Sequence of INSR (P06213 whole entry): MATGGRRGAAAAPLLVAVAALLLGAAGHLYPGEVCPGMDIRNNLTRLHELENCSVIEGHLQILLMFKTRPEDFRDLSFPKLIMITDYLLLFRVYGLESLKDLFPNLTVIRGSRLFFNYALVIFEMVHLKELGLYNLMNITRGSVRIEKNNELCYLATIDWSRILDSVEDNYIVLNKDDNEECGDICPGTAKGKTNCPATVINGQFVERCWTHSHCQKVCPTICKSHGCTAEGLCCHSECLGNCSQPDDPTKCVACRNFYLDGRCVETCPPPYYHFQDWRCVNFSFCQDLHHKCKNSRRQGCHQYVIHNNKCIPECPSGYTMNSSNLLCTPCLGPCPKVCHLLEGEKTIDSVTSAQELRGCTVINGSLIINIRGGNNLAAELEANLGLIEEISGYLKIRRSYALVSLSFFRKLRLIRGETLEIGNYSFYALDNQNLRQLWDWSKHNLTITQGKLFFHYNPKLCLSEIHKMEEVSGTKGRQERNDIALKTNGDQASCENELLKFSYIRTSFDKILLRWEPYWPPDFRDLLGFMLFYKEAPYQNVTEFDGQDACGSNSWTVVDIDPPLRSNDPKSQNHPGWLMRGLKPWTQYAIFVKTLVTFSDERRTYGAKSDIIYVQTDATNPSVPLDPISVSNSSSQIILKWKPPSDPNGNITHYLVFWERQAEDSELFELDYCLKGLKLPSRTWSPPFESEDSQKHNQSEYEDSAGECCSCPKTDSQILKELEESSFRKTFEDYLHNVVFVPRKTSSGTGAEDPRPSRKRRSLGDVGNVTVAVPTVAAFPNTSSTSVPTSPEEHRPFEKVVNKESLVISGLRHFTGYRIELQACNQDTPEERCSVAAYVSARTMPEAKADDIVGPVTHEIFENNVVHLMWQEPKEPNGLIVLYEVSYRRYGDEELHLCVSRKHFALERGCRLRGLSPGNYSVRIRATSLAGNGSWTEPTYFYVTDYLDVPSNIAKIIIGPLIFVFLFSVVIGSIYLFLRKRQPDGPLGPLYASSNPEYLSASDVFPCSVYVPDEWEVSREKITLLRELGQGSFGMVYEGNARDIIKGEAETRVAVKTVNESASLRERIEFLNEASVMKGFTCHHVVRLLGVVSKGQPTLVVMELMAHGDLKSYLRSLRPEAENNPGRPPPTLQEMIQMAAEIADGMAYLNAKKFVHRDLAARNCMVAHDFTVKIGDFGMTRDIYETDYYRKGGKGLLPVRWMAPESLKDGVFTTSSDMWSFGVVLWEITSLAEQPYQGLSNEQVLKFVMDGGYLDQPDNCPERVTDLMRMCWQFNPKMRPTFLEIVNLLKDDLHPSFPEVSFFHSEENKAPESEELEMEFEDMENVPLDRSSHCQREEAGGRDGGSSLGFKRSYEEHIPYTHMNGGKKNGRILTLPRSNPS

PIK3CB = PIK3CB (Homo sapiens, UniProt P42338)
MUSK = MUSK (Homo sapiens, UniProt O15146)
FGFR2 = FGFR2 (Homo sapiens, UniProt P21802)
ACVR1 = ACVR1 (Homo sapiens, UniProt Q04771)
CDKL1 = CDKL1 (Homo sapiens, UniProt Q00532)
TNK1 = TNK1 (Homo sapiens, UniProt Q13470)
Sequence of TNK1 (Q13470 whole entry): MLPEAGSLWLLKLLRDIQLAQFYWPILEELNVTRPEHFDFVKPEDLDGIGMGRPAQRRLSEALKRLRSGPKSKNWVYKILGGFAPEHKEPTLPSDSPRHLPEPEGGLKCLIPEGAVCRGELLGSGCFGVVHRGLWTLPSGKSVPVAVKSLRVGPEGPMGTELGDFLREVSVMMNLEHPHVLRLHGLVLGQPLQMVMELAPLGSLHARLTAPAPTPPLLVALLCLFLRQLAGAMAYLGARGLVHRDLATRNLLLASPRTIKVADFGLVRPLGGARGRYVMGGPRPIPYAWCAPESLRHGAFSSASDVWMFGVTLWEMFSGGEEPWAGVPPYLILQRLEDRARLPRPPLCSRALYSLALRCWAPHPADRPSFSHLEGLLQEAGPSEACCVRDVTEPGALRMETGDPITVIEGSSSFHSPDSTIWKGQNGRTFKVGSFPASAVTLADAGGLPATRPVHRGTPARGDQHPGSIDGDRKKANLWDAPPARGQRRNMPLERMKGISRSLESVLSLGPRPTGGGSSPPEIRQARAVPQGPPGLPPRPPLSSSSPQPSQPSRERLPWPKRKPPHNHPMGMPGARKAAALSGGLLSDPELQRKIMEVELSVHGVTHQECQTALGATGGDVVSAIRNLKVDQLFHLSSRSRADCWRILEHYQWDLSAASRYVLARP

MRCKB = biological target: T4, MRCKB (Homo sapiens, UniProt Q9Y5S2)
T4 construct: gene CDC42BPB

PDGFRA = PDGFRA (Homo sapiens, UniProt P16234)
CSNK1D = CSNK1D (Homo sapiens, UniProt P48730)

Question: Which remaining binding (ALK(C1156Y)) does the source give for `c1ccc2c(c1)Sc1ccccc1N2CCN1CCOCC1` [J54] here?
Answer: Its remaining binding is 100%.

Question: And the remaining binding (ALK(L1196M))?
Answer: The remaining binding was 100%.

Question: What about the remaining binding (KIT(D816V)) of the same compound?
Answer: The remaining binding was 96%.

Question: And the remaining binding (RIPK5)?
Answer: Its remaining binding is 100%.

Question: What about the remaining binding (IRAK4) of the same compound?
Answer: The remaining binding was 100%.

Question: And the remaining binding (FGR)?
Answer: The remaining binding was 100%.

Question: And the remaining binding (ASK1)?
Answer: The remaining binding was 98%.

Question: And the remaining binding [1]?
Answer: The remaining binding was 89%.

Question: What about the remaining binding (INSR) of the same compound?
Answer: Its remaining binding is 68%.

Question: What about the remaining binding (PIK3CB) of the same compound?
Answer: Its remaining binding is 100%.

Question: What about the remaining binding (MUSK) of the same compound?
Answer: Its remaining binding is 100%.

Question: And the remaining binding (FGFR2)?
Answer: The remaining binding was 100%.

Question: And the remaining binding (ACVR1)?
Answer: The remaining binding was 94%.

Question: And the remaining binding (CDKL1)?
Answer: The remaining binding was 79%.

Question: What about the remaining binding (TNK1) of the same compound?
Answer: Its remaining binding is 99%.

Question: And the remaining binding (MRCKB)?
Answer: The remaining binding was 95%.

Question: What about the remaining binding (PDGFRA) of the same compound?
Answer: Its remaining binding is 100%.

Question: What about the remaining binding (CSNK1D) of the same compound?
Answer: Its remaining binding is 95%.
